What was measured:
293T cells = assay: Cytotoxicity test (CCK-8 cell viability) in 293T cells; format: cell-based, human; conditions: 293T cell line
Method: Human undifferentiated neuroblastoma cell line SH-SY5Y and human embryonic kidney cell line (HEK)-293T were purchased from Korean Cell Line Bank (Korea) and Takara (Japan), respectively. Cells were grown in HyClone Minimal Essential Medium (MEM) and Dulbecco's Modified Eagle Medium (DMEM), respectively, supplemented with 10% (v/v) fetal bovine serum (FBS), penicillin (100 U/mL), and streptomycin ([…]). Cells were maintained in a humidified atmosphere of 95% air and 5% CO2 at 37° C. Cells were passaged 10 times at maximum. Cells were dissociated using 0.05% trypsin-EDTA solution and the cells were seeded in new culture dishes for maintenance.
To examine the cytotoxicity of compounds described herein in human cell lines, SH-SY5Y and 293T cells were used. Approximately 8,000 cells (for 293T) and 15,000 cells (for SH-SY5Y) were plated per well of a 96-well plate (SPL Life Sciences Co., Ltd., Pocheon, Korea). After incubating at 37° C. for 24 hours in a humidified atmosphere containing 5% CO2, the culture medium was replaced by a series of concentrations of test compounds diluted in the corresponding culture medium.
The time of co-incubation was 24 hours and six replicates were made for each measurement. Finally, 10 μL of CCK-8 reagent (Dojindo Laboratories, Rockville, MD) was added to each well, and after incubation at 37° C. for 3 minutes, the OD at 450 nm was measured using a multifunction microplate reader (Tecan Infinite M200 Pro). These measurements were compared to that of a control and expressed as a percentage of the control to calculate cell viability. The IC50 value was calculated using SPSS software. To do this, the absorbance of the blank wells with only growth medium is subtracted from the values or the wells with cells. The readout value of background (vehicle) was set as a 100% viability, and then the percent viability for each test solution was calculated.
The data was presented as the mean value and standard error of the mean (S.E.M.). Statistical analysis was performed with the one-way ANOVA with Tukey's post hoc test (GraphPad Prism 5 software package, version 5.02, GraphPad Software Inc. USA). Significance was accepted at p<0.05.
The cytotoxicity of the compound was evaluated by treating cells with BnH12003 and measuring cell viability.
By treating cells with various BnH12 series compounds and measuring cell viability using the experimental procedure described in Example 2, the cytotoxicity of the compounds was evaluated.

GluN2B = GluN2B protein expression by Western blot in primary cortical neuron cells; format: cell-based, mouse; conditions: for Western blot results Mean (GluN2B expression): relative value, vehicle set to 1, primary cortical neurons treated for 24 hours; for GluN2B expression effect (in words): compared to vehicle / other compounds, Table 5
Method: Meanwhile, primary cortical neuron cells were isolated from cerebral cortices of 18-day-old mouse fetuses, incubated in prep media (composition (mM): NaCl 107.5, NaH2PO4 1, NaHCO333.5, glucose 11, HEPS 1%, penicillin-streptomycin 1%) containing 0.25% trypsin and DNasel for 30 minutes, dissociated into single cells, and seeded. Primary cortical neuron cells were grown in Neurobasal medium supplemented with 1% (v/v) B27, 1% penicillin (100 U/mL), streptomycin ([…]), and 1% Glutamax. Cells were maintained in a humidified atmosphere of 95% air and 5% CO2 at 37° C. Drug efficacy was evaluated after culturing primary cortical neuron cells for 14 days.
The amount of GluN2B reacted with the compound of the present disclosure was measured using Western blot. The fetal cerebral cortex was extracted from mice at 17 days of gestation, dissociated into single cells, cultured for 13 days, and treated with BnH drugs for 24 hours. The drug-treated cells were subjected to protein lysate preparation using RIPA protein lysis buffer containing protease and phosphatase inhibitors. The protein concentration was determined using a BCA protein assay kit (Pierce Biotechnology) using bovine serum albumin as a standard. Equal amounts of protein (20 μg per lane) were separated by electrophoresis on SDS-polyacrylamide gels at 90 V for 2 hours, then transferred from the SDS-polyacrylamide gel to PVDF membrane at 100 V for 1 hour. Then, primary reaction with GluN2B antibody (ab65783, Abcam) was performed at 4° C. for 1 day, washed three times at 10-minutes intervals with 1×PBT, and secondary reaction was performed with anti-mouse antibody (sc-2357, Santa Cruz) for 1 hour, followed by washing three times at 10-minutes intervals with 1×PBT. Western blotting was performed as described above to confirm GluN2B protein expression. Subsequently, each blot was re-probed using anti-β-actin antibody (sc-47778, Santa Cruz). Housekeeping protein B-actin was detected as a normalization control.
The increase and decrease of BnH12 series were confirmed by setting the vehicle to 1 (N for each group was 3 or more).
Using the experimental procedure described in Example 3, it was determined whether various BnH12 series compounds increase GluN2B expression, and the results are shown in Table 5. These in vitro experimental results are expressed as relative values to the group (vehicle) that was not treated with the compound, with the effect of the group set to 1.

| Compound | Cell viability test results (CCK) 10 uM (293T cells) [%<] | Cell viability test results (CCK) 100 uM (293T cells) [%<] | Western blot results Mean (GluN2B expression) (GluN2B) | GluN2B expression effect (in words) (GluN2B) |
| --- | --- | --- | --- | --- |
| O=C(NO)[C@@H]1CCCN1C(=O)Cc1ccc(-c2cncnc2)cc1 [BnH12017, (S)-N-hydroxy-1-(2-(4-(pyrimidin-5-yl)phenyl)acetyl)pyrrolidine-2-carboxamide] | 95 | 80 | 1.448 | – |
| C[C@H]1CC[C@@H](C(=O)O)CN1C(=O)Cc1ccc(-c2ccnnc2)cc1 [BnH12045, (3R,6S)-6-methyl-1-(2-(4-(pyridazin-4-yl)phenyl)acetyl) piperidine-3-carboxylic acid] | 99 | 99 | 1.341 | – |
| C[C@H]1CC[C@@H](C(=O)O)CN1C(=O)Cc1ccc(-c2cccnc2)cc1 [BnH12046, (3R,6S)-6-methyl-1-(2-(4-(pyridin-3-yl)phenyl)acetyl) piperidine-3-carboxylic acid] | 95 | 90 | 2.102 | excellent effects |
| C[C@H]1CC[C@@H](C(=O)O)CN1C(=O)Cc1ccc(-c2cnccn2)cc1 [BnH12047, (3R,6S)-6-methyl-1-(2-(4-(pyrazin-2-yl)phenyl)acetyl) piperidine-3-carboxylic acid] | 99 | 99 | 1.554 | – |
| C[C@H]1CC[C@@H](C(=O)O)CN1C(=O)Cc1ccc(-c2ncccn2)cc1 [BnH12048, (3R,6S)-6-methyl-1-(2-(4-(pyrimidin-2-yl)phenyl)acetyl) piperidine-3-carboxylic acid] | 95 | 80 | 1.071 | – |
| C[C@H]1CC[C@@H](C(=O)O)CN1C(=O)Cc1ccc(-c2nccn2C)cc1 [BnH12053, sodium (3R,6S)-6-methyl-1-(2-(4-(1-methyl-1H-imidazol-2-yl)phenyl)acetyl) piperidine-3-carboxylate] | 95 | 95 | 1.652 | – |
| C[C@H]1CC[C@@H](C(=O)O)CN1C(=O)Cc1ccc(-c2cnco2)cc1 [BnH12057, (3R,6S)-6-methyl-1-(2-(4-(oxazol-5-yl)phenyl)acetyl) piperidine-3-carboxylic acid] | 95 | 55 | 2.241 | excellent effects |
| C[C@H]1CC[C@@H](C(N)=O)CN1C(=O)Cc1ccc(-c2ncccn2)cc1 [BnH12058, (3R,6S)-6-methyl-1-(2-(4-(pyrimidin-2-yl)phenyl)acetyl) piperidine-3-carboxamide] | 99 | 90 | 1.54 | – |
| C[C@@H]1CC[C@H](C(=O)O)CN1C(=O)Cc1ccc(-c2cccnc2)cc1 [BnH12066, (3S,6R)-6-methyl-1-(2-(4-(pyridin-3-yl)phenyl)acetyl) piperidine-3-carboxylic acid] | 99 | 90 | 1.514 | – |
| C[C@@H]1CC[C@H](C(=O)O)CN1C(=O)Cc1ccc(-c2cnccn2)cc1 [BnH12067, (3S,6R)-6-methyl-1-(2-(4-(pyrazin-2-yl)phenyl)acetyl) piperidine-3-carboxylic acid] | 99 | 85 | 2.565 | excellent effects |
| C[C@@H]1CC[C@H](C(=O)O)CN1C(=O)Cc1ccc(-c2cncnc2)cc1 [BnH12071, (3S,6R)-6-methyl-1-(2-(4-(pyrimidin-5-yl)phenyl)acetyl) piperidine-3-carboxylic acid] | 80 | 75 | 1.799 | – |
| C[C@H]1CC[C@@H](C(=O)O)CN1C(=O)Cc1ccc(-c2cccc([N+](=O)[O-])c2)cc1 [BnH12072, (3R,6S)-6-methyl-1-(2-(3′-nitro-8 1,l′-biphenyl9-4-yl)acetyl) piperidine-3-carboxylic acid] | 90 | 80 | 1.822 | – |
| C[C@H]1CC[C@@H](C(=O)O)CN1C(=O)Cc1cccc(-c2ccccc2)c1 [BnH12078] | 90 | 75 | 1.017 | – |
| C[C@H]1CC[C@@H](C(=O)O)CN1C(=O)Cc1ccc(-c2ccc(C3CCCCC3)cc2)cc1 [BnH12085, (3R,6S)-1-(2-(4′-cyclohexyl-8 1,l′-biphenyl9-4-yl)acetyl)-6-methylpiperidine-3-carboxylic acid] | 30 | 0 | 1.557 | – |
| C[C@H]1CC[C@@H](C(=O)O)CN1C(=O)Cc1ccc(-c2ccc(N)cc2)cc1 [BnH12086, (3R,6S)-1-(2-(4′-amino-8 1,l′-biphenyl9-4-yl)acetyl)-6-methylpiperidine-3-carboxylic acid] | 80 | 70 | 1.753 | – |
| C[C@H]1CC[C@@H](C(=O)O)CN1C(=O)Cc1ccc(-c2cccc(N)c2)cc1 [BnH12088, (3R,6S)-1-(2-(3′-amino-8 1,l′-biphenyl9-4-yl)acetyl)-6-methylpiperidine-3-carboxylic acid] | 90 | 90 | 1.219 | – |
| C[C@H]1CC[C@@H](C(=O)O)CN1C(=O)Cc1ccc(-c2ccc(-c3cccnc3)cc2)cc1 [BnH12089, (3R,6S)-6-methyl-1-(2-(4'-(pyridin-3-yl)-[1,1'-biphenyl]-4-yl)acetyl)piperidine-3-carboxylic acid] | 65 | 55 | 1.409 | – |
